The source of these data is patent US7531320B2, “Modulation of β-catenin/TCF-activated transcription” (priority 2003, dated 2009).

The test system of assay [1] is c-myc promoter. The assay is described as follows: ChIP assay, c-myc promoter in SW480 cells. The assay is classed as cell-based, human. The settings on record: 25 μM, 8 hours. The method, then:
(§1) FIG. 5. COMPOUND 1 inhibits the expression of cyclin D1. • A. Cyclin D1 levels are decreased with COMPOUND 1 treatment. Western blot analysis was performed on 25 μg of SW480 whole cell lysates treated for 4, 8, or 24 hours with either 25 μM of COMPOUND 1 or control (0.5% DMSO). Immunoblotting was performed using anti-Cyclin D1 antibodies (Santa Cruz Biotechnology Inc.). • B. In vivo occupancy of cyclin D1 and c-myc promoters by CBP and p300. […] ChIP assays were performed on promoter of c-myc from SW480 cells which was treated for 8 hours with COMPOUND 1 (25 μM) or control (0.5% DMSO). CBP (AC-26, a generous gift from Dr. David Livingston, Harvard University, Boston, Mass.) or p300 (C-20, Santa Cruz Biotechnology Inc.) specific antibodies were used to evaluate the promoter occupancy by CBP or p300 in presence of COMPOUND 1 or control (DMSO) treatment.
Formaldehyde cross-linking and chromatin immunoprecipitation assays of SW480 cells were performed as described previously (Barlev et al., “Acetylation of p53 activates transcription through recruitment of coactivators/histone acetyltransferases,” Mol. Cell 8:1243-54 (2001); El-Osta et al., “Analysis of chromatin-immunopurified MeCP2-associated fragments,” Biochem. Biophys. Res. Commun. 289:733-37 (2001); Shang et al., “Formation of the androgen receptor transcription Complex,” Mol. Cell 9:601-10 (2002)). […]

In assay [2] the target is T1, CBP (1-111) (Mus musculus, UniProt P45481).
T1 construct: 6xHis (C); HSV tag (C); expressed in transfected cells
The assay is described as follows: Pull-down of CBP deletion constructs on COMPOUND 2 coated beads, competition with excess COMPOUND 1. Type of assay: binding. As to conditions: CBP (1-111), (1-211), (1-351) in SW480 lysates, 150 μM COMPOUND 1.

In assay [3] the test system is cyclin D1. The assay is described as follows: Western blot of Cyclin D1 in SW480 whole cell lysates. Type of assay: cell-based, human. The settings on record: SW480 cells, 25 μM, beginning at 4 hours, increasing at 24 hours. The procedure:
as §1
Immune complexes, from above, were separated on SDS-PAGE followed by transfer to immobilon-P membranes (PVDF) from (Millipore, Bedford, Mass.). […] Immunoblots were analyzed using an ECL detection kit (Amersham Pharmacia Biotech).
The β-actin gene was used to normalize the data. The ΔCycle of Threshold (CT) values were determined by subtracting the average values of each set from the corresponding average values obtained for the β-actin gene. […] Cyclin D1 protein levels in cells were also evaluated. […]

SMILES strings stand for the structures.

T1 sequence (P45481 1-110): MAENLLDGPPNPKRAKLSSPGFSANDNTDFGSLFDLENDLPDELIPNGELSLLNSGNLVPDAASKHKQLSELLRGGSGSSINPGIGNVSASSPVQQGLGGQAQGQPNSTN

As to `O=C1C(Cc2ccc(O)cc2)N2C(=O)CCN(C(=O)NCc3ccccc3)C2CN1Cc1cccc2ccccc12` (stereo not shown) [COMPOUND 1], in assay [1], the “Association of CBP with the c-myc promoter” value is “completely and selectively blocks”; the “Level of p300 associated with the c-myc promoter” value was “increased”. In assay [2], the “Competition of CBP fragment binding to COMPOUND 2 beads by excess COMPOUND 1” value is listed as “strongly competed away”. Also, in assay [3], the “Level of Cyclin D1 protein” value is given as “clear reduction”.
